Assay results as given in US9012466B2, “Substituted tricyclic pyrazolo-pyrimidine compounds” (ArQule, Inc., priority 2013, dated 2015).

Tests used:
[1] = test system: Rec-1; test: Anti Proliferation Assay (MTS), Rec-1; type: cell-based; details: Homo sapiens, Rec1, Rec-1 cells, 72 hours treatment
Procedure: (§1) Cell survival was determined by the MTS assay. Briefly, cells were plated in a 96-well plate at 2,000-10,000 cells per well, cultured for 24 hours in complete growth medium, and then treated with various drugs and drug combinations for 72 hours. MTS/PMS was added and incubated for 4 hour, followed by assessment of cell viability using the microplate reader (absorbance at 490 nm). Data were normalized to untreated controls and analyzed with Microsoft Excel.

[2] = biological target: T1, Full-length BTKC481S (Homo sapiens, UniProt Q06187, C481S); test: BTKC481S Kinase Activity Assay; type: biochemical; details: AlphaScreen, 60 μM ATP; test concentration not given
T1 construct: Full-length BTKC481S was diluted in assay buffer
T1 sequence (Q06187 whole entry C481S): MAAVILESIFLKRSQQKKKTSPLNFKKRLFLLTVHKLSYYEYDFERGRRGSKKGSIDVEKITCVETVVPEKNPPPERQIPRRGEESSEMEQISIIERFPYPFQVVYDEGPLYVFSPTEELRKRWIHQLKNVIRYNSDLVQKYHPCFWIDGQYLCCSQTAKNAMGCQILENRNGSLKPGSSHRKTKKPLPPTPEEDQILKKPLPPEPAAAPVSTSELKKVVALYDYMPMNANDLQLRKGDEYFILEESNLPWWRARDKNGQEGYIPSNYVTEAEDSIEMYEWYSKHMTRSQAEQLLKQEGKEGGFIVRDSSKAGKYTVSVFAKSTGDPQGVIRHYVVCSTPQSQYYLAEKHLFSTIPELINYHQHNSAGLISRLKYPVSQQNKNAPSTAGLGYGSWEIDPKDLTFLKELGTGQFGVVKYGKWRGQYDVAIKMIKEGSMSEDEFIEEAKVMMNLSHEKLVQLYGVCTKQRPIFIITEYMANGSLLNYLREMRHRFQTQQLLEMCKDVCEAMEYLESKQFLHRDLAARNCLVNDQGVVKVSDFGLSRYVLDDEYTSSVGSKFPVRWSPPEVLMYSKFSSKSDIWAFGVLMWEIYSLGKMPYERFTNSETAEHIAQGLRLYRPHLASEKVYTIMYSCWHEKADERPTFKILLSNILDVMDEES
Procedure: BTKC481S Kinase Activity Assay
Test inhibitors and controls (Staurosporine) were prepared in 10% DMSO at 10-fold the desired final concentration, and added to each well of a reaction plate (Corning 96-well half-area solid white nonbinding surface plate) in a volume of 2.5 μl. Full-length BTKC481S was diluted in assay buffer (50 mM Tris, pH 8.0, 0.02 mg/ml BSA, 10 mM MgCl2, 1 mM EGTA, 10% glycerol, 1 mM DTT, 1 mM β-glycerophosphate, and 1 mM NaF) and added to each well in a volume of 17.5 μl for a final concentration in the 25 μl reaction of 10 nM. After a 30 minute pre-incubation at room temperature, the kinase reaction was initiated by the addition of 5 μl of an activation mixture diluted in assay buffer containing biotinylated PLCγ2 peptide, and ATP for final concentrations of 125 nM biotinylated PLCγ2, and 60 μM ATP. The plates were incubated for 60 minutes at room temperature. The reactions were stopped in the dark by the addition of 10 μl stop/detection mixture prepared in assay buffer containing EDTA, Staurosporine and AlphaScreen™ Streptavidin Donor and anti-pTYR100 Acceptor beads. The final concentrations were 15 mM EDTA, 1 μM Staurosporine and 500 ng/well of both AlphaScreen™ (Amplified Luminescent Proximity Homogeneous Assay) technology donor and acceptor beads. Assay plates were incubated for 60 minutes at room temperature in the dark, and the plates were read on a Perkin Elmer Envision Multilabel plate reader (excitation wavelength: […], emission wavelength: 570 nm).

[3] = test system: TMD-8; test: Anti Proliferation Assay (MTS), TMD-8; type: cell-based; details: Homo sapiens, TMD8, TMD-8 cells, 72 hours treatment
Procedure: as §1

[4] = biological target: Full-length inactive BTK (Homo sapiens, UniProt Q06187); test: BTK Kinase Activity Assay; type: biochemical; details: AlphaScreen, 25 μM ATP, 30 minute pre-incubation
Sequence of Full-length inactive BTK (Q06187 whole entry): as the sequence (Q06187 whole entry C481S) above, with S481C counted along it
Procedure: BTK Kinase Activity Assay
After a 30 minute pre-incubation at room temperature, the kinase reaction was initiated by the addition of 5 μl of an activation mixture diluted in assay buffer containing biotinylated PLCγ2 peptide, DOPS/DOPC, PtdIns(3,4,5)P3, and ATP for final concentrations of 100 nM biotinylated PLCγ2, 5.5 μM DOPS, 5.5 μM DOPC, 0.5 μM PtdIns(3,4,5)P3, and 25 μM ATP. The plates were incubated for 60 minutes at room temperature. The reactions were stopped in the dark by the addition of 10 μl stop/detection mixture prepared in assay buffer containing EDTA and AlphaScreen™ Streptavidin Donor and anti-pTYR100 Acceptor beads. The final concentrations were 10 mM EDTA and 500 ng/well of both AlphaScreen™ (Amplified Luminescent Proximity Homogeneous Assay) technology donor and acceptor beads. Assay plates were incubated for 60 minutes at room temperature in the dark, and the plates were read on a Perkin Elmer Envision Multilabel plate reader (excitation wavelength: […], emission wavelength: 570 nm).

BTK (C481S) (% inhibition) [2] | IC50 [4] | SMILES | IC50 [1] | IC50 [3]
59% | 0.033 µM | Cc1c2c(=O)[nH]nc-2c2cnc(NC[C@H]3COc4ccccc4O3)nc2n1-c1ccccc1 [Compound 359, 7-{[(2S)-2,3-dihydro-1,4-benzodioxin-2-ylmethyl]amino}-4-methyl-5-phenyl-2,5-dihydro-3H-pyrazolo[3′,′:4,5]pyrido[2,3-d]pyrimidin-3-one] | 23.7 µM | 27 µM
36.1% | 0.0046 µM | CN1C[C@H](CNc2ncc3c4[nH]nc(N)c4c(=O)n(-c4ccccc4)c3n2)Oc2cc(F)ccc21 [Compound 345, 3-amino-7-({[(2S)-7-fluoro-4-methyl-3,4-dihydro-2H-1,4-benzoxazin-2-yl]methyl}amino)-5-phenyl-1,5-dihydro-4H-pyrazolo[3′,4′:4,5]pyrido[2,3-d]pyrimidin-4-one] | 14.7 µM | 3.2 µM
73.3% | 0.14 µM | Cc1[nH]nc2c1c(=O)n(-c1ccccc1)c1nc(NC[C@H]3COc4ccccc4O3)ncc21 [Compound 210, 7-{[(2S)-2,3-dihydro-1,4-benzodioxin-2-ylmethyl]amino}-3-methyl-5-phenyl-2,5-dihydro-4H-pyrazolo[3′,′:4,5]pyrido[2,3-d]pyrimidin-4-one] | 6.8 µM | 7.1 µM
53.7% | 0.33 µM | O=c1[nH]nc2c3cnc(NCC4COc5ccccc5O4)nc3n(-c3ccccc3)cc1-2 (stereo not shown) [Compound 356, 7-(((2,3-dihydrobenzo[b][1,4]dioxin-2-yl)methyl)amino)-5-phenyl-2H-pyrazolo[3′,′:4,5]pyrido[2,3-d]pyrimidin-3(5H)-one] | 18.5 µM | 23 µM
99.2% | 0.034 µM | CN1CC(CNc2ncc3c4n[nH]cc4c(=O)n(-c4ccccc4F)c3n2)Oc2ccccc21 (stereo not shown) [Compound 229, 5-(2-fluorophenyl)-7-(((4-methyl-3,4-dihydro-2H-benzo[b][1,4]oxazin-2-yl)methyl)amino)-2H-pyrazolo[3′,4′:4,5]pyrido[2,3-d]pyrimidin-4(5H)-one] | 2.6 µM | 1.4 µM
100% | 0.014 µM | CN1C[C@H](CNc2ncc3c4n[nH]cc4c(=O)n(-c4ccccc4F)c3n2)Oc2ccccc21 [Compound 343, 5-(2-fluorophenyl)-7-({[(2S)-4-methyl-3,4-dihydro-2H-1,4-benzoxazin-2-yl]methyl}amino)-2,5-dihydro-4H-pyrazolo[3′,4′:4,5]pyrido[2,3-d]pyrimidin-4-one] | 1.4 µM | 0.6 µM
101% | 0.011 µM | CN(C[C@H]1CN(C)c2ccccc2O1)c1ncc2c3[nH]nc(N)c3c(=O)n(-c3ccccc3F)c2n1 [Compound 342, 3-amino-5-(2-fluorophenyl)-7-(methyl{[(2R)-4-methyl-3,4-dihydro-2H-1,4-benzoxazin-2-yl]methyl}amino)-1,5-dihydro-4H-pyrazolo[3′,4′:4,5]pyrido[2,3-d]pyrimidin-4-one] | 2.6 µM | 0.7 µM
98.2% | 0.038 µM | CN(CC1COc2ccccc2O1)c1ncc2c3[nH]nc(N)c3c(=O)n(-c3ccccc3)c2n1 (stereo not shown) [Compound 223, 3-amino-7-[(2,3-dihydro-1,4-benzodioxin-2-ylmethyl)(methyl)amino]-5-phenyl-1,5-dihydro-4H-pyrazolo[3′,4′:4,5]pyrido[2,3-d]pyrimidin-4-one] | 6.2 µM | 11.3 µM
92.8% | 0.24 µM | O=c1c2c[nH]nc2c2cnc(NCC3COc4ccccc4O3)nc2n1-c1ccccc1 (stereo not shown) [Compound 14, 7-(((2,3-dihydrobenzo[b][1,4]dioxin-2-yl)methyl)amino)-5-phenyl-2H-pyrazolo[3′,′:4,5]pyrido[2,3-d]pyrimidin-4(5H)-one] | 4.3 µM | 4 µM
85.2% | 0.033 µM | O=c1c2c[nH]nc2c2cnc(NCC3CNc4ccccc4O3)nc2n1-c1ccccc1F (stereo not shown) [Compound 346, 7-[(3,4-dihydro-2H-1,4-benzoxazin-2-ylmethyl)amino]-5-(2-fluorophenyl)-2,5-dihydro-4H-pyrazolo[3′,4′:4,5]pyrido[2,3-d]pyrimidin-4-one] | 32 µM | 9.6 µM
